Results from ChEMBL document CHEMBL5150061, “Design and Synthesis of Fibroblast Growth Factor Receptor (FGFR) and Histone Deacetylase (HDAC) Dual Inhibitors for the Treatment of Cancer” (J Med Chem, 2022).

What was measured:
[1] = Half life in Sprague-Dawley rat at 30 mg/kg, po measured for 24 hrs by LC-MS/MS-18 analysis; assay type: ADME, organism-based; details: in vivo
[2] = AUC (0 to infinity) in Sprague-Dawley rat at 2 mg/kg, iv measured for 24 hrs by LC-MS/MS-18 analysis; assay type: ADME, organism-based; parameters: time 24 hrs, dose 2 mg/kg, route iv; details: in vivo
[3] = target: T1, Protein deacetylase HDAC6 (Homo sapiens, UniProt Q9UBN7); assay: Inhibition of HDAC6 (unknown origin)
T1 sequence (Q9UBN7 whole entry): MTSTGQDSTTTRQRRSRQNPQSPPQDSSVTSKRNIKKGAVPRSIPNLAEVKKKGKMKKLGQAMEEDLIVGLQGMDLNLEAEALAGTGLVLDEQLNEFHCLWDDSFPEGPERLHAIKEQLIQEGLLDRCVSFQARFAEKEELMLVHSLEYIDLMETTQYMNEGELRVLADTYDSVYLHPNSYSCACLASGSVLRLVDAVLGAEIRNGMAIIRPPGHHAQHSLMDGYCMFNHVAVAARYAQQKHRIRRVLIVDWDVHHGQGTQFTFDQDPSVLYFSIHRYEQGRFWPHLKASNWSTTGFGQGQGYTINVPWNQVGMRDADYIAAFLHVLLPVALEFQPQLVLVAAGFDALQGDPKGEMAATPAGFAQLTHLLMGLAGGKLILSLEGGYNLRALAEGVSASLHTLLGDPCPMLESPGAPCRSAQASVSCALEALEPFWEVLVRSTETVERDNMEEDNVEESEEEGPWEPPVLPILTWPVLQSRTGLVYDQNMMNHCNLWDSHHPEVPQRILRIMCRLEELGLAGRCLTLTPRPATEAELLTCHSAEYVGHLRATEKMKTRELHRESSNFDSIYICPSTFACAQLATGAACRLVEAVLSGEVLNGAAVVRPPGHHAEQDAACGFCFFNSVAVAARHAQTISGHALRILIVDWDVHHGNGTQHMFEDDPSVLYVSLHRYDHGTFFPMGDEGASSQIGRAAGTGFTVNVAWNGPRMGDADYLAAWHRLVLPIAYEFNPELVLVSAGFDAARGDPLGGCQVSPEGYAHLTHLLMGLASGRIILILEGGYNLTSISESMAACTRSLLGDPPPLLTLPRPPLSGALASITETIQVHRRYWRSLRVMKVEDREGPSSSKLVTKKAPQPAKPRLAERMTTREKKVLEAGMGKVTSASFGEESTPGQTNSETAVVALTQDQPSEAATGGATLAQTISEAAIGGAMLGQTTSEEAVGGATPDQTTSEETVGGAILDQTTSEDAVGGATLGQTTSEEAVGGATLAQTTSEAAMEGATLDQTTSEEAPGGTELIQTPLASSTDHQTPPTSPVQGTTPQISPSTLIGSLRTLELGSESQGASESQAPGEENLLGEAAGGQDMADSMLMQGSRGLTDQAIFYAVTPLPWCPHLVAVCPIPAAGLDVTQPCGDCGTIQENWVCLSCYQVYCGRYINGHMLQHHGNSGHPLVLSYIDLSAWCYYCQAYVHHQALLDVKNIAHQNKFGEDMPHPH

[4] = target: Fibroblast growth factor receptor 2 (Homo sapiens, UniProt P21802); assay: Inhibition of FGFR2 (unknown origin)
[5] = Tmax in Sprague-Dawley rat at 5 mg/kg, ip measured for 24 hrs by LC-MS/MS-18 analysis; assay type: ADME, organism-based; details: in vivo
[6] = Toxicity in BALB/c nude mouse xenografted with human SNU-16 cells assessed as reduction in body weight at 15 to 30 mg/kg/day, ip administered for 18 days and measured every 3 days; assay type: organism-based; details: in vivo, 432 h, dose 15-30 mg/kg/day, time 18 day
Histone deacetylase 8 = target: T2, Histone deacetylase 8 (Homo sapiens, UniProt Q9BY41); assay: Inhibition of HDAC8 (unknown origin)
T2 sequence (Q9BY41 whole entry): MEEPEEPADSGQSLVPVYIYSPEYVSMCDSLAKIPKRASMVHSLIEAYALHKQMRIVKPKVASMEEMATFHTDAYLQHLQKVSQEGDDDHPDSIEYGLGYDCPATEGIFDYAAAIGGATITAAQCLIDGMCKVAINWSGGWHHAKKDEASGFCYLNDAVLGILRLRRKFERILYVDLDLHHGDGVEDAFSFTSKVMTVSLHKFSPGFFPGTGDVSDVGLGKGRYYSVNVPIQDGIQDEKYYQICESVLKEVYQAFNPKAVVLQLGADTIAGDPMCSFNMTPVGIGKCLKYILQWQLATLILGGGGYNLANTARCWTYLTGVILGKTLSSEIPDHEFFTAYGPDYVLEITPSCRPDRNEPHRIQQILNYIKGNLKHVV

[7] = Half life in Sprague-Dawley rat at 5 mg/kg, ip measured for 24 hrs by LC-MS/MS-18 analysis; assay type: ADME, organism-based; details: in vivo
[8] = Cmax in Sprague-Dawley rat at 2 mg/kg, iv measured for 24 hrs by LC-MS/MS-18 analysis; assay type: ADME, organism-based; parameters: time 24 hrs, dose 2 mg/kg, route iv; details: in vivo
Histone deacetylase 2 = Histone deacetylase 2 (Homo sapiens, UniProt Q92769); assay: Inhibition of HDAC2 (unknown origin)
[9] = AUC (0 to infinity) in Sprague-Dawley rat at 5 mg/kg, ip measured for 24 hrs by LC-MS/MS-18 analysis; assay type: ADME, organism-based; parameters: time 24 hrs, dose 5 mg/kg, route ip; details: in vivo
Histone deacetylase 1 = Histone deacetylase 1 (Homo sapiens, UniProt Q13547); assay: Inhibition of HDAC1 (unknown origin)
[10] = AUC (0 to infinity) in Sprague-Dawley rat at 30 mg/kg, po measured for 24 hrs by LC-MS/MS-18 analysis; assay type: ADME, organism-based; parameters: dose 30 mg/kg, time 24 hrs, route po; details: in vivo
[11] = Cmax in Sprague-Dawley rat at 5 mg/kg, ip measured for 24 hrs by LC-MS/MS-18 analysis; assay type: ADME, organism-based; parameters: time 24 hrs, dose 5 mg/kg, route ip; details: in vivo
[12] = target: Fibroblast growth factor receptor 4 (Homo sapiens, UniProt P22455); assay: Inhibition of FGFR4 (unknown origin)
[13] = Clearance in Sprague-Dawley rat at 2 mg/kg, iv measured for 24 hrs by LC-MS/MS-18 analysis; assay type: ADME, organism-based; details: in vivo
[14] = Oral bioavailability in Sprague-Dawley rat at 30 mg/kg measured for 24 hrs by LC-MS/MS-18 analysis; assay type: ADME, organism-based; details: in vivo
[15] = Tmax in Sprague-Dawley rat at 30 mg/kg, po measured for 24 hrs by LC-MS/MS-18 analysis; assay type: ADME, organism-based; details: in vivo
[16] = Tmax in Sprague-Dawley rat at 2 mg/kg, iv measured for 24 hrs by LC-MS/MS-18 analysis; assay type: ADME, organism-based; details: in vivo
[17] = Oral bioavailability in Sprague-Dawley rat at 5 mg/kg measured for 24 hrs by LC-MS/MS-18 analysis; assay type: ADME, organism-based; details: in vivo, route ip
[18] = Toxicity in BALB/c nude mouse xenografted with human HCT-116 cells assessed as reduction in body weight at 15 to 30 mg/kg/day, po administered for 18 days and measured every 3 days; assay type: organism-based; details: in vivo, 432 h, dose 15-30 mg/kg/day, time 18 day
[19] = target: Fibroblast growth factor receptor 3 (Homo sapiens, UniProt P22607); assay: Inhibition of FGFR3 (unknown origin)
[20] = Half life in Sprague-Dawley rat at 2 mg/kg, iv measured for 24 hrs by LC-MS/MS-18 analysis; assay type: ADME, organism-based; details: in vivo
[21] = Cmax in Sprague-Dawley rat at 30 mg/kg, po measured for 24 hrs by LC-MS/MS-18 analysis; assay type: ADME, organism-based; parameters: dose 30 mg/kg, time 24 hrs, route po; details: in vivo
[22] = Volume of distribution at steady state in Sprague-Dawley rat at 2 mg/kg, iv measured for 24 hrs by LC-MS/MS-18 analysis; assay type: ADME, organism-based; details: in vivo, read-out: Vdss
[23] = Toxicity in BALB/c nude mouse xenografted with human HCT-116 cells assessed as reduction in body weight at 30 mg/kg/day, po administered for 18 days and measured every 3 days; assay type: organism-based; details: in vivo, 432 h, time 18 day
SNU-16 [24] = assay: Induction of apoptosis in human SNU-16 cells assessed as early apoptotic cells at 0.3 uM incubated for 72 hrs by annexin-V/FITC propidium iodide staining based flow cytometry analysis (reference value: 3.02%); assay type: functional
SNU-16 [25] = assay: Induction of apoptosis in human SNU-16 cells assessed as live cells at 0.03 uM incubated for 72 hrs by annexin-V/FITC propidium iodide staining based flow cytometry analysis (reference value: 90.92%); assay type: functional
SNU-16 [26] = assay: Induction of apoptosis in human SNU-16 cells assessed as dead cells at 0.3 uM incubated for 72 hrs by annexin-V/FITC propidium iodide staining based flow cytometry analysis (reference value: […]); assay type: functional
SNU-16 [27] = assay: Induction of apoptosis in human SNU-16 cells assessed as live cells at 1 uM incubated for 72 hrs by annexin-V/FITC propidium iodide staining based flow cytometry analysis (reference value: 90.92%); assay type: functional
SNU-16 [28] = assay: Induction of apoptosis in human SNU-16 cells assessed as early apoptotic cells at 0.03 uM incubated for 72 hrs by annexin-V/FITC propidium iodide staining based flow cytometry analysis (reference value: 3.02%); assay type: functional
[29] = Toxicity in BALB/c nude mouse xenografted with human SNU-16 cells assessed as reduction in body weight at 50 mg/kg/day, ip administered for 18 days and measured every 3 days; assay type: organism-based; details: in vivo, 432 h, time 18 day
SNU-16 [30] = assay: Induction of apoptosis in human SNU-16 cells assessed as dead cells at 0.03 uM incubated for 72 hrs by annexin-V/FITC propidium iodide staining based flow cytometry analysis (reference value: […]); assay type: functional
SNU-16 [31] = assay: Induction of apoptosis in human SNU-16 cells assessed as late apoptotic cells at 0.03 uM incubated for 72 hrs by annexin-V/FITC propidium iodide staining based flow cytometry analysis (reference value: 3.41%); assay type: functional
K562 = assay: cells; assay type: functional, cell-based; details: Homo sapiens, K562, 72 h
SNU-16 [32] = assay: Induction of apoptosis in human SNU-16 cells assessed as dead cells at 1 uM incubated for 72 hrs by annexin-V/FITC propidium iodide staining based flow cytometry analysis (reference value: […]); assay type: functional
SNU-16 [33] = assay: Induction of apoptosis in human SNU-16 cells assessed as dead cells at 0.1 uM incubated for 72 hrs by annexin-V/FITC propidium iodide staining based flow cytometry analysis (reference value: […]); assay type: functional
SNU-16 [34] = assay: Induction of apoptosis in human SNU-16 cells assessed as late apoptotic cells at 1 uM incubated for 72 hrs by annexin-V/FITC propidium iodide staining based flow cytometry analysis (reference value: 3.41%); assay type: functional
SNU-16 [35] = assay: Induction of apoptosis in human SNU-16 cells assessed as late apoptotic cells at 0.1 uM incubated for 72 hrs by annexin-V/FITC propidium iodide staining based flow cytometry analysis (reference value: 3.41%); assay type: functional
SNU-16 [36] = assay: Induction of apoptosis in human SNU-16 cells assessed as live cells at 0.1 uM incubated for 72 hrs by annexin-V/FITC propidium iodide staining based flow cytometry analysis (reference value: 90.92%); assay type: functional
SNU-16 [37] = assay: Induction of apoptosis in human SNU-16 cells assessed as early apoptotic cells at 1 uM incubated for 72 hrs by annexin-V/FITC propidium iodide staining based flow cytometry analysis (reference value: 3.02%); assay type: functional
SNU-16 [38] = assay: Induction of apoptosis in human SNU-16 cells assessed as early apoptotic cells at 0.1 uM incubated for 72 hrs by annexin-V/FITC propidium iodide staining based flow cytometry analysis (reference value: 3.02%); assay type: functional
SNU-16 [39] = assay: Induction of apoptosis in human SNU-16 cells assessed as late apoptotic cells at 0.3 uM incubated for 72 hrs by annexin-V/FITC propidium iodide staining based flow cytometry analysis (reference value: 3.41%); assay type: functional
SNU-16 [40] = assay: Induction of apoptosis in human SNU-16 cells assessed as live cells at 0.3 uM incubated for 72 hrs by annexin-V/FITC propidium iodide staining based flow cytometry analysis (reference value: 90.92%); assay type: functional

Sequence of Histone deacetylase 1 (Q13547 whole entry): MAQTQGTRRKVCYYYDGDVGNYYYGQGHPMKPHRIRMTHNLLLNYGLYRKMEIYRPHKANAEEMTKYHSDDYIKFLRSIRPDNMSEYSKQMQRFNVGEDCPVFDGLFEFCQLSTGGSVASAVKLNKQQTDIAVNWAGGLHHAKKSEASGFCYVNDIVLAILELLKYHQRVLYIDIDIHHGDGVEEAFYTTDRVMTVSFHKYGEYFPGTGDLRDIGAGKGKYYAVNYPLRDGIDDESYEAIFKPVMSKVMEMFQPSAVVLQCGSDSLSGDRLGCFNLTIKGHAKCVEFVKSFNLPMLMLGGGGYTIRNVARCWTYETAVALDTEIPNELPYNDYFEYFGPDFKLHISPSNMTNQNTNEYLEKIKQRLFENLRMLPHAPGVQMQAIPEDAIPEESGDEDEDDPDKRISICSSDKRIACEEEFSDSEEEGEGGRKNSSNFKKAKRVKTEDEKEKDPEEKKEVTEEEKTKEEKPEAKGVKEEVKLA
Sequence of Fibroblast growth factor receptor 3 (P22607 whole entry): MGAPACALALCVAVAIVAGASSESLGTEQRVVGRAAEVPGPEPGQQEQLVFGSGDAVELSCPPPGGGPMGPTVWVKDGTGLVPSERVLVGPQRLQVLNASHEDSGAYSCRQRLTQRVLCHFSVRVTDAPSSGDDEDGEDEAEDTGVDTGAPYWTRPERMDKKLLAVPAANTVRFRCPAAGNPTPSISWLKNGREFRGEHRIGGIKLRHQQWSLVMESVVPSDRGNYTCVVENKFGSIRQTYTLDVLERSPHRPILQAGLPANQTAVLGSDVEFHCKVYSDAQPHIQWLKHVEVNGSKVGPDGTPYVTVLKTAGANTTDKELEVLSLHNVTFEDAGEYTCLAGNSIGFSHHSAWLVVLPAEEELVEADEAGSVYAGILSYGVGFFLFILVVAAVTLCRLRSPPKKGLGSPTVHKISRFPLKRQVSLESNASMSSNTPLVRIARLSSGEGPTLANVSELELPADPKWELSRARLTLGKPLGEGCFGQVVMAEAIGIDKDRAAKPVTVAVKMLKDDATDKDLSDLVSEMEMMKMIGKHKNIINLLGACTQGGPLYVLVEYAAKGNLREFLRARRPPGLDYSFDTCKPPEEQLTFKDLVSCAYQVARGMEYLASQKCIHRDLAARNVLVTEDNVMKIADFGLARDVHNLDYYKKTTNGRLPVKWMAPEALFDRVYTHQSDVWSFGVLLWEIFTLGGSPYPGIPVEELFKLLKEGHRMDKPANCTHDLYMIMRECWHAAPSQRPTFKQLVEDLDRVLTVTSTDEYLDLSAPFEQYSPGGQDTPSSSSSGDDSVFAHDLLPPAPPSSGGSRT
Sequence of Fibroblast growth factor receptor 4 (P22455 whole entry): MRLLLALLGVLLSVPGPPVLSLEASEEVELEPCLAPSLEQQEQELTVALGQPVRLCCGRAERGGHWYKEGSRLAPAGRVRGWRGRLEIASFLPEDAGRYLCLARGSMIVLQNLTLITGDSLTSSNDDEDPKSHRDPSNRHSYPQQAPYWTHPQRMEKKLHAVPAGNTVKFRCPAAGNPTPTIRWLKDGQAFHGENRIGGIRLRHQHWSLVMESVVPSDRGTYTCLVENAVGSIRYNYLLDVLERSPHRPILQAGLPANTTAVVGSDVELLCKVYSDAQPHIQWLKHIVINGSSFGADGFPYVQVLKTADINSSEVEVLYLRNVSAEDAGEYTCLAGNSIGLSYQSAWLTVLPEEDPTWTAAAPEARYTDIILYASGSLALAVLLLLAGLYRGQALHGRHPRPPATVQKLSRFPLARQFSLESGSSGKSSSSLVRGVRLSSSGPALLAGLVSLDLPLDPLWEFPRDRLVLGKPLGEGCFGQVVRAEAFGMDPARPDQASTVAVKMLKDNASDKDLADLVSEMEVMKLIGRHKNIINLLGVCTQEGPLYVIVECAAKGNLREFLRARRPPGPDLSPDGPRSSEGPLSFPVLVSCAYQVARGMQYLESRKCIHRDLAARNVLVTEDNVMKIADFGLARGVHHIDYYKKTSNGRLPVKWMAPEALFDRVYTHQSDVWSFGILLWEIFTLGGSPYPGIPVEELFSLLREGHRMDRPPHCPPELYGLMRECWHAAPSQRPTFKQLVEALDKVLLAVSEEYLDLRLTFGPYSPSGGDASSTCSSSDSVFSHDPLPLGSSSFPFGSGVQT
Sequence of Fibroblast growth factor receptor 2 (P21802 whole entry): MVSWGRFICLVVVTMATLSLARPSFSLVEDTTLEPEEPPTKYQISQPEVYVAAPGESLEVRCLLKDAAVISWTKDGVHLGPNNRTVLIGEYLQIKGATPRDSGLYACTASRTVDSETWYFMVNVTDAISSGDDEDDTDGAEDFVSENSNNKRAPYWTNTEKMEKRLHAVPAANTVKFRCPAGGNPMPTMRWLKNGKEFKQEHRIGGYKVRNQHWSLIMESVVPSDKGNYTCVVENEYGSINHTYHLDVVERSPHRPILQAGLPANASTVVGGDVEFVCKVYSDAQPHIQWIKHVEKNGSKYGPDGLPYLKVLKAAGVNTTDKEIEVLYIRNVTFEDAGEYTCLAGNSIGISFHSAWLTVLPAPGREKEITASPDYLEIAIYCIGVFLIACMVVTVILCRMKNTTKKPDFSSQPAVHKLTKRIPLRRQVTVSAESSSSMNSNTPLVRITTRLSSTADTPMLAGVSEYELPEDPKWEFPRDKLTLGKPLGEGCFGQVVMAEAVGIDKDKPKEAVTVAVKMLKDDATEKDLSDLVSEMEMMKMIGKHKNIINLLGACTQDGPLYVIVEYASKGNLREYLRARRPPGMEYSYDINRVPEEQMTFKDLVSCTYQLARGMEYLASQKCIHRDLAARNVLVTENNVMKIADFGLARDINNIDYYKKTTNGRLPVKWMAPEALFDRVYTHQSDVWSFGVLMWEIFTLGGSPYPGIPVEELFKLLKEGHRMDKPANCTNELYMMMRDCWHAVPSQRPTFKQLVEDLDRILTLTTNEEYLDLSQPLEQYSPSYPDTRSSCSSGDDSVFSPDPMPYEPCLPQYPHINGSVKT
Sequence of Histone deacetylase 2 (Q92769 whole entry): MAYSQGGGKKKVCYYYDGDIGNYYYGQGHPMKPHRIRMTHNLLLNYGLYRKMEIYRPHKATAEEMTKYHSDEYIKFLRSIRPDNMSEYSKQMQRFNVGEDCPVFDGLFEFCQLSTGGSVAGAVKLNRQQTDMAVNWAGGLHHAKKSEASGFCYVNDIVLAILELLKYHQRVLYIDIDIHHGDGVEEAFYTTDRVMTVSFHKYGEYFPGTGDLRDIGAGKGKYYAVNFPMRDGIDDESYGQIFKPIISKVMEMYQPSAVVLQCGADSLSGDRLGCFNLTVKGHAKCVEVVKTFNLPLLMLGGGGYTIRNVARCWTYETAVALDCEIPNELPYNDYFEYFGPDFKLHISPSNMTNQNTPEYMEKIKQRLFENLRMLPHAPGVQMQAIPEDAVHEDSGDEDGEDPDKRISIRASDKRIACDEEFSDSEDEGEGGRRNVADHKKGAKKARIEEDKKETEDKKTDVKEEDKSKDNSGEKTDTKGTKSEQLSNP

Compound: COc1cc(OC)cc(N(CCNC(C)C)c2ccc3ncc(-c4cnn(CCCCCCC(=O)NO)c4)nc3c2)c1
- half-life [1]: 0.77 h
- AUC(0-inf) [2]: 425 ng·h/mL
- IC50 [3]: 2.6 nM
- IC50 [4]: 1.2 nM
- Tmax [5]: 2 h
- Activity [6]: Non-Toxic
- IC50 (Histone deacetylase 8): 13 nM
- half-life [7]: 1.83 h
- Cmax [8]: 1120 ng/mL
- IC50 (Histone deacetylase 2): 1.6 nM
- AUC(0-inf) [9]: 491 ng·h/mL
- IC50 (Histone deacetylase 1): 1.3 nM
- AUC(0-inf) [10]: 1560 ng·h/mL
- Cmax [11]: 102 ng/mL
- IC50 [12]: 1.4 nM
- clearance [13]: 80.6 mL/min/kg
- bioavailability [14]: 24.8%
- Tmax [15]: 4 h
- Tmax [16]: 4.8 min
- bioavailability [17]: 43.8%
- Activity [18]: Non-Toxic
- IC50 [19]: 0.46 nM
- half-life [20]: 0.98 h
- Cmax [21]: 443 ng/mL
- Vd [22]: 2.79 L/kg

Compound: O=C(CCCCCCC(=O)Nc1ccccc1)NO [VORINOSTAT]
- Activity [23]: Non-Toxic
- Activity (SNU-16 [24]): 2.48%
- Activity (SNU-16 [25]): 84.26%
- Activity (SNU-16 [26]): 6.4%
- Activity (SNU-16 [27]): 77.22%
- Activity (SNU-16 [28]): 3.12%
- Activity [29]: Non-Toxic
- Activity (SNU-16 [30]): 5.77%
- Activity (SNU-16 [31]): 6.85%
- IC50 (K562): 2240 nM
- Activity (SNU-16 [32]): 4.21%
- Activity (SNU-16 [33]): 6.19%
- Activity (SNU-16 [34]): 15.42%
- Activity (SNU-16 [35]): 9.98%
- Activity (SNU-16 [36]): 80.33%
- Activity (SNU-16 [37]): 3.16%
- Activity (SNU-16 [38]): 3.51%
- Activity (SNU-16 [39]): 10.46%
- Activity (SNU-16 [40]): 80.66%
